# From patent publication US6518252B2, “Method of treating aquatic animals with an antimicrobial agent and chelating agent” (priority 2000, dated 2003)
# Legend:
# P. mirabilis = assay: MIC and FIC of chemical disinfectants and EDTA-Tris; assay type: cell-based, Proteus mirabilis
# Method: (§1) A numerical score or Fractional Inhibitory Concentration (FIC) index was determined. The FIC index is equal to the sum of the values of FIC for the individual drugs: [formula]
# (§2) An FIC index greater than 1.0 indicated an antagonistic interaction, an FIC index of 1.0 indicated addition, and an FIC index of less than or equal to 0.5 indicated synergism between the two test agents.
# Staph. aureus = assay: as above; assay type: cell-based, Staphylococcus aureus
# Method: as §1, §2
# E. coli V-1 = assay: FIC of chemical disinfectants and EDTA-Tris; assay type: cell-based; settings: chemical disinfectant and EDTA-Tris
# Method: as §1, §2
# E. coli Av = assay: FIC of chemical disinfectants and EDTA-Tris; assay type: cell-based; settings: chemical disinfectant and EDTA-Tris
# Method: as §1, §2
# B subtilis = assay: FIC of chemical disinfectants and EDTA-Tris; assay type: cell-based; settings: chemical disinfectant and EDTA-Tris
# Method: as §1, §2
# [1] = system: S. typhimurium TRC1 (mar mutant); assay type: cell-based
# Method: as §1, §2
# Gram-negative bacteria = assay: EDTA-Tris disinfectant combinations, summary; assay type: cell-based; settings: most of the Gram-negative bacteria
# Method: as §1, §2
# Fractional inhibitory concentrations for EDTA-Tris disinfectant combinations (synergistic, additive, or antagonistic reactions) were determined for the test organisms. […]
# S. enteritidis = assay: MIC and FIC of chemical disinfectants and EDTA-Tris; assay type: cell-based
# Method: as §1, §2
# [2] = system: S. typhimurium DT104 (multiple antibiotic resistant strain); assay: as above; assay type: cell-based
# Method: as §1, §2
# [3] = system: S. typhimurium Avian (avian strain); assay: as above; assay type: cell-based
# Method: as §1, §2
# [4] = system: S. typhimurium 6578 (parent strain); assay: as above; assay type: cell-based
# Method: as §1, §2
# Ps. aeruginosa = assay: as above; assay type: cell-based, Pseudomonas aeruginosa
# Method: as §1, §2
# Gram-positive organisms = assay: EDTA-Tris disinfectant combinations, summary; assay type: cell-based
# Method: as §1, §2
# E. coli = assay: MIC of commercial chemical disinfectants or EDTA-Tris; assay type: cell-based; settings: 1 x stock solutions as in footnote of Table 5
# Bacillus sp. = assay: as above; assay type: cell-based; settings: 1 x stock: EDTA-Tris 5 mM EDTA + 50 mM Tris-HCl, Glutracide 1:200, Magnaphen-100 1:400, BioSentry 904 1:256, Synergize 1:256, hydrogen peroxide 3%
# [5] = 1 x stock solutions as in footnote of Table 5
# [6] = chemical disinfectant and EDTA-Tris
# [7] = 1 x stock solutions as in footnote of Table 6
compound,measurement,setting,value
OO [Hydrogen peroxide],MIC,P. mirabilis; [5],0.19 dilution of stock solution
same,FIC,P. mirabilis; [6],0.37
same,Type of reaction (FIC class),P. mirabilis; [6],C (Synergistic reaction (FIC < 0.5))
same,MIC,Staph. aureus; [5],0.02 dilution of stock solution
same,FIC,Staph. aureus; [6],1.48
same,Type of reaction (FIC class),Staph. aureus; [6],B (Antagonistic reaction (FIC > 1.0))
same,FIC,E. coli V-1,0.53
same,Type of reaction (FIC class),E. coli V-1,C (Additive reaction (FIC > 0.5 to < 1.0))
same,FIC,E. coli Av,0.50
same,Type of reaction (FIC class),E. coli Av,A (Synergistic reaction (FIC ˜ 0.5))
same,FIC,B subtilis,1.0
same,Type of reaction (FIC class),B subtilis,B (Additive reaction (FIC > 0.5 to < 1.0))
same,MIC,[1]; [7],0.005 dilution of stock solution
same,FIC,[1]; [6],0.5
same,Type of reaction (FIC class),[1]; [6],D (Synergistic reaction (FIC <: 0.5))
same,Effect of EDTA-Tris on the antimicrobial effect of the disinfectant,Gram-negative bacteria,potentiated (synergistic or additive)
same,MIC,S. enteritidis; [7],0.005 dilution of stock solution
same,FIC,S. enteritidis; [6],0.38
same,Type of reaction (FIC class),S. enteritidis; [6],C (Synergistic reaction (FIC < 0.5))
same,MIC,[2]; [7],0.005 dilution of stock solution
same,FIC,[2]; [6],0.75
same,Type of reaction (FIC class),[2]; [6],C (Additive reaction (FIC :> 0.5 to < 1.0))
same,MIC,[3]; [7],0.005 dilution of stock solution
same,FIC,[3]; [6],0.63
same,Type of reaction (FIC class),[3]; [6],C (Additive reaction (FIC :> 0.5 to < 1.0))
same,MIC,[4]; [7],0.005 dilution of stock solution
same,FIC,[4]; [6],0.5
same,Type of reaction (FIC class),[4]; [6],D (Synergistic reaction (FIC <: 0.5))
same,MIC,Ps. aeruginosa; [5],0.09 dilution of stock solution
same,FIC,Ps. aeruginosa; [6],0.37
same,Type of reaction (FIC class),Ps. aeruginosa; [6],C (Synergistic reaction (FIC < 0.5))
same,Effect of EDTA-Tris on the antimicrobial effect of the disinfectant,Gram-positive organisms,did not react uniformly
same,MIC,E. coli,0.12 dilution of stock solution
same,MIC,Bacillus sp.,0.05 dilution of stock solution
